# Molecular target: T1, GCS (Canis lupus familiaris, UniProt A0A8I3MXG6)
# T1 sequence (A0A8I3MXG6 1-394): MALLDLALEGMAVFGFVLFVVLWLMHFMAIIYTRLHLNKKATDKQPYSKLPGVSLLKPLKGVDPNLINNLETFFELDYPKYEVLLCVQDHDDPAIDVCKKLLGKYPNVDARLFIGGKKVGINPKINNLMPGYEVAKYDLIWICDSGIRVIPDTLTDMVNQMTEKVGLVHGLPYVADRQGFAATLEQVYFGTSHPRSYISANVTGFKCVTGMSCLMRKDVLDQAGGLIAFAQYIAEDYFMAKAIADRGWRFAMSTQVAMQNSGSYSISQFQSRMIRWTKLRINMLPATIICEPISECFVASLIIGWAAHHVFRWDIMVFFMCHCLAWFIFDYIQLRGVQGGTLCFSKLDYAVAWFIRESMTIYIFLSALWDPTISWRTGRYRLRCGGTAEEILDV
# Assay: Assay 1: GCS Enzymatic Assay (MDCK cell lysate, C6-NBD-Ceramide, LC/MS)
# Type: biochemical, canine
# Conditions: Table 2; data marked by *
# Summary of the method: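 LC/MS/MS measurement of glucosylceramide and NBD-ceramide after a 1 h, 37 °C reaction with 100 μM UDP-glucose and 10 μM C6-NBD-ceramide gave IC50s or percent inhibition.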
row,Compound,% inhibition generated from Assay 1
1,"O=C(N[C@H](CN1CCCC1)[C@H](O)c1ccc2c(c1)OCCO2)C(=O)c1csc(-c2ccc(F)cc2)n1 [Compound 229, N-((1R,2R)-1-(2,3-dihydrobenzo[b][1,4]dioxin-6-yl)-1-hydroxy-3-(pyrrolidin-1-yl)propan-2-yl)-2-(2-(4-fluorophenyl)thiazol-4-yl)-2-oxoacetamide]",B* (the compound had a % inhibition of greater than or equal to about 3% but less than about 50%)
2,"O=C(N[C@H](CN1CCCC1)[C@H](O)c1ccc(OC2CC2)c(Cl)c1)C(=O)c1cccc(N2CCCCC2)c1 [Compound 238, N-((2R)-1-(3-chloro-4-cyclopropoxyphenyl)-1-hydroxy-3-(pyrrolidin-1-yl)propan-2-yl)-2-oxo-2-(3-(piperidin-1-yl)phenyl)acetamide]",B* (the compound had a % inhibition of greater than or equal to about 3% but less than about 50%)
3,"Cn1ncc2ccc(C(=O)C(=O)N[C@H](CN3CCCC3)[C@H](O)c3cc(F)c4c(c3)OCCO4)cc21 [Compound 245, N-((1R,2R)-1-(8-fluoro-2,3-dihydrobenzo[b][1,4]dioxin-6-yl)-1-hydroxy-3-(pyrrolidin-1-yl)propan-2-yl)-2-(1-methyl-1H-indazol-6-yl)-2-oxoacetamide]",A* (the compound had a % inhibition of a percent inhibition of greater than or equal to about 50%)
4,"O=C(N[C@H](CN1CCCC1)[C@H](O)c1ccc(OC2CC2)c(Cl)c1)C(F)(F)c1ccc(-c2ccc(F)cc2)nc1 [Compound 247, N-((1R,2R)-1-(3-chloro-4-cyclopropoxyphenyl)-1-hydroxy-3-(pyrrolidin-1-yl)propan-2-yl)-2,2-difluoro-2-(6-(4-fluorophenyl)pyridin-3-yl)acetamide]",A* (the compound had a % inhibition of a percent inhibition of greater than or equal to about 50%)

# Same assay, conditions: Table 2; data without asterisk; read-out: IC50 (nM) generated from Assay 1
row,Compound,IC50 [nM]
1,"O=C(N[C@H](CN1CCCC1)[C@H](O)c1cc(F)c2c(c1)OCCO2)C(=O)c1ccc(-c2ccc(F)cc2)s1 [Compound 230, N-((1R,2R)-1-(8-fluoro-2,3-dihydrobenzo[b][1,4]dioxin-6-yl)-1-hydroxy-3-(pyrrolidin-1-yl)propan-2-yl)-2-(5-(4-fluorophenyl)thiophen-2-yl)-2-oxoacetamide]",< 50
2,"O=C(N[C@H](CN1CCCC1)[C@H](O)c1ccc(OC2CC2)c(Cl)c1)C(=O)c1ccc(N2CCCCC2)cc1 [Compound 231, N-((1R,2R)-1-(3-chloro-4-cyclopropoxyphenyl)-1-hydroxy-3-(pyrrolidin-1-yl)propan-2-yl)-2-oxo-2-(4-(piperidin-1-yl)phenyl)acetamide]",< 50
3,"Cn1ncc2ccc(-c3ccc(C(F)(F)C(=O)N[C@H](CN4CCCC4)[C@H](O)c4ccc(OC5CC5)c(Cl)c4)cc3)cc21 [Compound 232, N-((1R,2R)-1-(3-chloro-4-cyclopropoxyphenyl)-1-hydroxy-3-(pyrrolidin-1-yl)propan-2-yl)-2,2-difluoro-2-(4-(1-methyl-1H-indazol-6-yl)phenyl)acetamide]",< 50
4,"O=C(N[C@H](CN1CCCC1)[C@H](O)c1ccc(OC2CC2)c(Cl)c1)C(=O)c1ccc2sccc2c1 [Compound 233, 2-(benzo[b]thiophen-5-yl)-N-((1R,2R)-1-(3-chloro-4-cyclopropoxyphenyl)-1-hydroxy-3-(pyrrolidin-1-yl)propan-2-yl)-2-oxoacetamide]",< 50
5,"O=C(N[C@H](CN1CCCC1)[C@H](O)c1cc(Cl)c2c(c1)OCCO2)C(=O)c1ccc(-c2ccc(F)cc2)cc1 [Compound 234, N-((1R,2R)-1-(8-chloro-2,3-dihydrobenzo[b][1,4]dioxin-6-yl)-1-hydroxy-3-(pyrrolidin-1-yl)propan-2-yl)-2-(4′-fluoro-[1,1′-biphenyl]-4-yl)-2-oxoacetamide]",< 50
6,"Cn1ncc2ccc(-c3ccc(C(F)(F)C(=O)N[C@H](CN4CCCC4)[C@H](O)c4ccc5c(c4)OCCO5)cc3)cc21 [Compound 235, N-((1R,2R)-1-(2,3-dihydrobenzo[b][1,4]dioxin-6-yl)-1-hydroxy-3-(pyrrolidin-1-yl)propan-2-yl)-2,2-difluoro-2-(4-(1-methyl-1H-indazol-6-yl)phenyl)acetamide]",< 50
7,"Cn1ncc2ccc(-c3ccc(C(F)(F)C(=O)N[C@H](CN4CCCC4)[C@H](O)c4cc(F)c5c(c4)OCCO5)cc3)cc21 [Compound 236, 2,2-difluoro-N-((1R,2R)-1-(8-fluoro-2,3-dihydrobenzo[b][1,4]dioxin-6-yl)-1-hydroxy-3-(pyrrolidin-1-yl)propan-2-yl)-2-(4-(1-methyl-1H-indazol-6-yl)phenyl)acetamide]",< 50
8,"Cn1cc2ccc(-c3ccc(C(F)(F)C(=O)N[C@H](CN4CCCC4)[C@H](O)c4ccc(OC5CC5)c(Cl)c4)cc3)cc2n1 [Compound 237, N-((1R,2R)-1-(3-chloro-4-cyclopropoxyphenyl)-1-hydroxy-3-(pyrrolidin-1-yl)propan-2-yl)-2,2-difluoro-2-(4-(2-methyl-2H-indazol-6-yl)phenyl)acetamide]",< 50
9,"O=C(N[C@H](CN1CCCC1)[C@H](O)c1cc(F)c2c(c1)OCCO2)C(F)(F)c1ccc(-c2ccc(F)cc2)s1 [Compound 239, 2,2-difluoro-N-((1R,2R)-1-(8-fluoro-2,3-dihydrobenzo[b][1,4]dioxin-6-yl)-1-hydroxy-3-(pyrrolidin-1-yl)propan-2-yl)-2-(5-(4-fluorophenyl)thiophen-2-yl)acetamide]",< 50
10,"Cn1cc2cc(-c3ccc(C(=O)C(=O)N[C@H](CN4CCCC4)[C@H](O)c4cc(F)c5c(c4)OCCO5)cc3)ccc2n1 [Compound 240, N-((1R,2R)-1-(8-fluoro-2,3-dihydrobenzo[b][1,4]dioxin-6-yl)-1-hydroxy-3-(pyrrolidin-1-yl)propan-2-yl)-2-(4-(2-methyl-2H-indazol-5-yl)phenyl)-2-oxoacetamide]",< 50
11,"O=C(N[C@H](CN1CCCC1)[C@H](O)c1ccc(OC2CC2)c(Cl)c1)C(=O)c1ccc(Oc2ccc(F)cc2)cc1 [Compound 241, N-((1R,2R)-1-(3-chloro-4-cyclopropoxyphenyl)-1-hydroxy-3-(pyrrolidin-1-yl)propan-2-yl)-2-(4-(4-fluorophenoxy)phenyl)-2-oxoacetamide]",< 50
12,"O=C(N[C@H](CN1CCCC1)[C@H](O)c1ccc(OC2CC2)c(Cl)c1)C(=O)c1cc2ccc(Cl)cc2s1 [Compound 242, N-((1R,2R)-1-(3-chloro-4-cyclopropoxyphenyl)-1-hydroxy-3-(pyrrolidin-1-yl)propan-2-yl)-2-(6-chlorobenzo[b]thiophen-2-yl)-2-oxoacetamide]",< 50
13,"Cn1ncc2ccc(-c3ccc(C(=O)C(=O)N[C@H](CN4CCCC4)[C@H](O)c4ccc(OC5CC5)c(Cl)c4)cc3)cc21 [Compound 243, N-((1R,2R)-1-(3-chloro-4-cyclopropoxyphenyl)-1-hydroxy-3-(pyrrolidin-1-yl)propan-2-yl)-2-(4-(1-methyl-1H-indazol-6-yl)phenyl)-2-oxoacetamide]",< 50
14,"Cn1ncc2ccc(C(=O)C(=O)N[C@H](CN3CCCC3)[C@H](O)c3ccc(OC4CC4)c(Cl)c3)cc21 [Compound 244, N-((1R,2R)-1-(3-chloro-4-cyclopropoxyphenyl)-1-hydroxy-3-(pyrrolidin-1-yl)propan-2-yl)-2-(1-methyl-1H-indazol-6-yl)-2-oxoacetamide]",< 50
15,"Cn1ncc2ccc(-c3ccc(C(=O)C(=O)N[C@H](CN4CCCC4)[C@H](O)c4cc(F)c5c(c4)OCCO5)cc3)cc21 [Compound 246, N-((1R,2R)-1-(8-fluoro-2,3-dihydrobenzo[b][1,4]dioxin-6-yl)-1-hydroxy-3-(pyrrolidin-1-yl)propan-2-yl)-2-(4-(1-methyl-1H-indazol-6-yl)phenyl)-2-oxoacetamide]",< 50
16,"O=C(N[C@H](CN1CCC1)[C@H](O)c1cc(F)c2c(c1)OCCO2)C(=O)c1cccc(Oc2ccc(F)cc2)c1 [Compound 248, N-((1R,2R)-3-(azetidin-1-yl)-1-(8-fluoro-2,3-dihydrobenzo[b][1,4]dioxin-6-yl)-1-hydroxypropan-2-yl)-2-(3-(4-fluorophenoxy)phenyl)-2-oxoacetamide]",< 50
17,"O=C(N[C@H](CN1CCCC1)[C@H](O)c1ccc(OC2CC2)c(Cl)c1)C(=O)c1cccc(Oc2ccc(F)cc2)c1 [Compound 249, N-((1R,2R)-1-(3-chloro-4-cyclopropoxyphenyl)-1-hydroxy-3-(pyrrolidin-1-yl)propan-2-yl)-2-(3-(4-fluorophenoxy)phenyl)-2-oxoacetamide]",< 50
18,"O=C(N[C@H](CN1CCCC1)[C@H](O)c1cc(F)c2c(c1)OCCO2)C(=O)c1cccc(-c2ccc(F)cc2)c1 [Compound 250, N-((1R,2R)-1-(8-fluoro-2,3-dihydrobenzo[b][1,4]dioxin-6-yl)-1-hydroxy-3-(pyrrolidin-1-yl)propan-2-yl)-2-(4′-fluoro-[1,1′-biphenyl]-3-yl)-2-oxoacetamide]",< 50
19,"O=C(N[C@H](CN1CCCC1)[C@H](O)c1ccc(OC2CC2)c(Cl)c1)C(=O)c1cccc(-c2ccc(F)cc2)c1 [Compound 251, N-((1R,2R)-1-(3-chloro-4-cyclopropoxyphenyl)-1-hydroxy-3-(pyrrolidin-1-yl)propan-2-yl)-2-(4′-fluoro-[1,1′-biphenyl]-3-yl)-2-oxoacetamide]",< 50
